Results taken from US5446021A, “Agricultural and horticultural compositions inducing resistance in plants against salt- and water-stress” (Nippon Zoki Pharmaceutical Co., Ltd., priority 1988, dated 1995).

Tests used:
[1] = system: rice (Oryza sativa L. japonica); experiment: Effects on rice seedlings under salt-stress caused by sodium chloride (NaCl); type: in vivo; details: 7 days after transplantation, mean ± S.E.
Description: (§1) A filter paper soaked with an aqueous solution of a test agent was laid in a germination dish. Even-sized seeds of rice (Oryza sativa L. japonica) were selected, washed with an aqueous solution containing 0.5% Tween 20 and 1.0% sodium hypochlorite, and then dried. The gemination dishes were sowed with the said rice seeds.
(§2) The seeds were treated with the aqueous solution of the test agent only during the germination period (4 days). The five seeds having equal root lengths were transplanted from germination dishes to water culture vessels with/without NaCl-solution, not containing any test drug. Lengths and weights of both shoots and roots were measured 7 days after transplantation.
(§3) These tests (30° C., 24 h daylight) were repeated 6 times, and the mean value and standard error (S.E.) were obtained.

[2] = system: tomato seedlings; experiment: Effects on tomato seedlings under salt-stress caused by NaCl; type: in vivo; details: 0.5% NaCl for 22 days, 25~30° C., 12 h daylight, n = 12~18
Description: (§4) Tomato seeds were treated with the aqueous solution of the test agent during the germination period (4 days). 9 days after transplantation from germination dishes to water culture vessels, 0.5% NaCl-solution was added to the vessels. The tomato seedlings had been cultivated for 22 days in the culture medium containing NaCl.

[3] = system: azalea cuttings; experiment: Effect on azaleas under salt-stress caused by CaCl2; type: in vivo; details: cuttings in 1×10^-6 M test solution; 20% CaCl2 sprayed; 30 days after CaCl2 treatment; result in words
Description: Branches about 20 cm from the top of an azalea bush were cut off. The cuttings were dipped into 50 ml of water of the test solution (compound 9; 1×10^-6 M) in a glass culture tube. The solution was replaced with new solution once a week. Six days after cutting of the branches, a 20% solution of CaCl2, which has been used as an antifreezing agent, was sprayed on the cuttings. Thirty days after the CaCl2 treatment, the rate of azalea budding was measured using the following equation: [formula]

[4] = system: rice seedlings; experiment: Effects on rice seedlings under water-stress caused by mannitol; type: in vivo, Oryza sativa L. japonica; details: 25° C., 14 h daylight
Description: as §1
as §2, with “transplantation. […]” for “transplantation.”
Using mannitol instead of NaCl in the similar manner (I) as mentioned above, the effects of the compounds of the present invention inducing resistance against water-stress were studied.

[5] = system: cucumber seedlings; experiment: Effects on cucumber seedlings under salt-stress caused by NaCl; type: in vivo; details: 0.5% NaCl for 25 days, 25~32° C., 12 h daylight, n = 5
Description: as §4, with “Cucumber” for “Tomato”, “(3” for “(4”, “11” for “9”, “cucumber” for “tomato”, “been for 25 days” for “been”, “cultivated” for “cultivated for 22 days”

[6] = system: rice (Oryza sativa L. japonica); experiment: Rice growth in water culture with NaCl in the medium (no test agent); type: in vivo; details: for Root length / Shoot length: no test agent, 7 days after transplantation, mean ± S.E.
Description: as §1, §2, §3

[7] = 1.0% NaCl, compound 1 × 10^-6 M during germination
[8] = 1.0% NaCl, compound 1 × 10^-8 M during germination
[9] = 1.5% NaCl, compound 1 × 10^-4 M during germination
[10] = 1.5% NaCl, compound 1 × 10^-8 M during germination
[11] = 1.5% NaCl, compound 1 × 10^-6 M during germination
[12] = 1.0% NaCl, compound 5 × 10^-4 M during germination
[13] = 1.0% NaCl, compound 5 × 10^-8 M during germination
[14] = 1.5% NaCl, compound 5 × 10^-4 M during germination
[15] = 1.5% NaCl, compound 5 × 10^-8 M during germination
[16] = 1.5% NaCl, compound 5 × 10^-6 M during germination
[17] = 1.5% NaCl, compound 5 × 10^-10 M during germination
[18] = 2.5% mannitol, compound 1 × 10^-4 M
[19] = 2.5% mannitol, compound 1 × 10^-8 M
[20] = 5.0% mannitol, compound 1 × 10^-4 M
[21] = 5.0% mannitol, compound 1 × 10^-8 M
[22] = 1.0% NaCl, compound 5 × 10^-6 M during germination
[23] = 1.0% NaCl, compound 1 × 10^-10 M during germination
[24] = 1.5% NaCl, compound 1 × 10^-10-6 M (so in the source) during germination
[25] = 1.0% NaCl, compound 1 × 10^-4 M during germination (4 days)
[26] = 1.5% NaCl, compound 1 × 10^-10 M during germination

Which Root length [1, 7] does the source give for O=C1[C@@H]2C[C@@H](O)CN2C(=O)[C@@H]2C[C@@H](O)CN12 [Compound 13, Cyclo(L-Hyp-L-Hyp)] here?
The Root length was 38.5 ± 1.66 mm.

And the Shoot length [1, 7]?
The Shoot length was 29.4 ± 0.61 mm.

What about the Root length [1, 8] of the same compound?
The Root length was 38.1 ± 2.03 mm.

And the Shoot length [1, 8]?
The Shoot length was 30.5 ± 0.59 mm.

What about the Root length [1, 9] of the same compound?
Its Root length is 35.6 ± 2.28 mm.

And the Shoot length [1, 9]?
Its Shoot length is 21.4 ± 0.69 mm.

And the Root length [1, 10]?
Its Root length is 37.9 ± 1.58 mm.

And the Shoot length [1, 10]?
The Shoot length was 21.9 ± 0.40 mm.

O=C1[C@@H]2CCCN2C(=O)[C@@H]2CCCN12 (racemic) [Compound 15, ±Cyclo(Pro-Pro)] was tested. Which Root length [1, 11] did it give?
The Root length was 42.7 ± 1.65 mm.

What about the Shoot length [1, 11] of the same compound?
The Shoot length was 24.2 ± 0.50 mm.

With CC(C)C[C@@H]1NC(=O)[C@@H]2C[C@@H](O)CN2C1=O [Compound 5, Cyclo (L-Leu-L-Hyp)] as the compound, how does the Root length [1, 12] read?
The Root length was 19.7 ± 0.69 mm.

What about the Shoot length [1, 12] of the same compound?
Its Shoot length is 28.7 ± 0.87 mm.

What about the Root length [1, 13] of the same compound?
Its Root length is 20.5 ± 0.87 mm.

What about the Shoot length [1, 13] of the same compound?
The Shoot length was 25.4 ± 0.83 mm.

What about the Root length [1, 14] of the same compound?
The Root length was 13.9 ± 0.61 mm.

And the Shoot length [1, 14]?
Its Shoot length is 17.1 ± 0.76 mm.

What about the Root length [1, 15] of the same compound?
The Root length was 15.7 ± 0.58 mm.

What about the Shoot length [1, 15] of the same compound?
The Shoot length was 15.6 ± 0.28 mm.

With O=C1[C@@H]2C[C@@H](O)CN2C(=O)[C@@H]2CCCN12 [Compound 9, Cyclo(L-Pro-L-Hyp)] as the compound, how does the “Dried stem and leaves weight” value ([2]; compound 1 × 10^-6 M during germination (4 days)) read?
Its value is 111.4 ± 8.8 mg.

And the “Dried stem and leaves weight” value ([2]; compound 1 × 10^-8 M during germination (4 days))?
The value was 141.4 ± 14.4 mg.

And the Root length [1, 12]?
Its Root length is 19.5 ± 0.96 mm.

And the Shoot length [1, 12]?
The Shoot length was 28.8 ± 0.99 mm.

And the Root length [1, 13]?
The Root length was 21.8 ± 0.86 mm.

What about the Shoot length [1, 13] of the same compound?
Its Shoot length is 27.1 ± 0.83 mm.

What about the Root length [1, 16] of the same compound?
The Root length was 15.9 ± 0.44 mm.

What about the Shoot length [1, 16] of the same compound?
Its Shoot length is 17.3 ± 0.42 mm.

What about the Root length [1, 17] of the same compound?
The Root length was 14.0 ± 0.49 mm.

What about the Shoot length [1, 17] of the same compound?
The Shoot length was 16.0 ± 0.64 mm.

What about the “Protection of azaleas against salt-stress (rate of azalea budding, FIG. 1)” value [3] of the same compound?
The value was “protecting azaleas against salt-stress”.

And the Root length [4, 18]?
The Root length was 67.7 ± 23.84 mm.

What about the Shoot length [4, 18] of the same compound?
Its Shoot length is 70.2 ± 3.73 mm.

What about the Root length [4, 19] of the same compound?
Its Root length is 68.2 ± 10.42 mm.

And the Shoot length [4, 19]?
Its Shoot length is 63.4 ± 2.18 mm.

And the Root length [4, 20]?
Its Root length is 39.6 ± 1.80 mm.

What about the Shoot length [4, 20] of the same compound?
Its Shoot length is 30.0 ± 2.29 mm.

What about the Root length [4, 21] of the same compound?
Its Root length is 46.7 ± 9.51 mm.

What about the Shoot length [4, 21] of the same compound?
Its Shoot length is 27.1 ± 1.55 mm.

And the Dried stem weight ([5]; compound 1 × 10^-6 M during germination (3 days))?
The Dried stem weight was 104.9 ± 7.37 mg.

And the Dried stem weight ([5]; compound 1 × 10^-8 M during germination (3 days))?
Its Dried stem weight is 95.5 ± 3.25 mg.

What does the source list for CC[C@H](C)[C@@H]1NC(=O)[C@@H]2C[C@@H](O)CN2C1=O [Compound 4, Cyclo(L-Ile-L-Hyp)]?
Root length [1, 22]: 19.9 ± 0.60 mm; Shoot length [1, 22]: 30.9 ± 1.24 mm; Root length [1, 13]: 21.2 ± 0.68 mm; Shoot length [1, 13]: 27.1 ± 0.67 mm; Root length [1, 15]: 14.9 ± 0.52 mm; Shoot length [1, 15]: 16.0 ± 0.75 mm; Root length [1, 17]: 14.7 ± 0.52 mm; Shoot length [1, 17]: 16.3 ± 0.66 mm

With O=C1[C@@H]2C[C@H](O)CN2C(=O)[C@@H]2C[C@H](O)CN12 [Compound 14, Cyclo(L-aHyp-L-aHyp)] as the compound, how does the Root length [1, 7] read?
The Root length was 43.2 ± 1.69 mm.

And the Shoot length [1, 7]?
The Shoot length was 31.8 ± 0.57 mm.

And the Root length [1, 23]?
Its Root length is 38.2 ± 1.57 mm.

And the Shoot length [1, 23]?
The Shoot length was 30.4 ± 0.60 mm.

And the Root length [1, 9]?
Its Root length is 35.0 ± 1.77 mm.

And the Shoot length [1, 9]?
Its Shoot length is 21.8 ± 0.58 mm.

And the Root length [1, 24]?
The Root length was 35.3 ± 1.93 mm.

What about the Shoot length [1, 24] of the same compound?
The Shoot length was 22.6 ± 0.83 mm.

Which results are given for [Cl-].[Na+] [NaCl, sodium chloride]?
Root length ([6]; 0.1% NaCl in water culture): 53.3 ± 2.61 mm; Shoot length ([6]; 0.1% NaCl in water culture): 78.0 ± 1.74 mm; Root length ([6]; 0.2% NaCl in water culture): 39.7 ± 2.02 mm; Shoot length ([6]; 0.2% NaCl in water culture): 77.6 ± 1.63 mm; Root length ([6]; 0.3% NaCl in water culture): 37.8 ± 1.48 mm; Shoot length ([6]; 0.3% NaCl in water culture): 79.2 ± 1.48 mm; Root length ([6]; 0.5% NaCl in water culture): 33.8 ± 1.76 mm; Shoot length ([6]; 0.5% NaCl in water culture): 45.3 ± 1.82 mm; Root length ([6]; 0.75% NaCl in water culture): 32.9 ± 1.07 mm; Shoot length ([6]; 0.75% NaCl in water culture): 34.7 ± 0.66 mm; Root length ([6]; 1.0% NaCl in water culture): 34.0 ± 1.75 mm; Shoot length ([6]; 1.0% NaCl in water culture): 28.2 ± 0.47 mm; Rice growth with NaCl in the medium ([6]; Table 1, result in words): apparently inhibited

For CC(C)C[C@@H]1NC(=O)[C@@H]2CCCN2C1=O [Compound 2, Cyclo (L-Leu-L-Pro)], which Root length [1, 25] is on record?
The Root length was 38.2 ± 1.60 mm.

What about the Shoot length [1, 25] of the same compound?
The Shoot length was 30.4 ± 0.60 mm.

What about the Root length [1, 23] of the same compound?
The Root length was 37.3 ± 1.69 mm.

And the Shoot length [1, 23]?
The Shoot length was 31.1 ± 0.60 mm.

And the Root length [1, 9]?
The Root length was 38.3 ± 1.89 mm.

And the Shoot length [1, 9]?
The Shoot length was 22.3 ± 0.53 mm.

And the Root length [1, 26]?
Its Root length is 39.2 ± 2.11 mm.

And the Shoot length [1, 26]?
Its Shoot length is 21.9 ± 0.53 mm.
